The term EC50 denotes the concentration that produces a half-maximal response.

For 15 compounds, inhibition and EC50 results are on record in US6750348B1, “Chemokine receptor binding heterocyclic compounds” (AnorMED, Inc., priority 1999, dated 2004).

Where only a bound is given, the exact number is not on record here.

Holding throughout (assay type): cell-based
The subject of experiment [1] is RANTES induced Ca flux in U87.CCR5 cells. Nature of the experiment: Inhibition of RANTES induced Ca flux in U87.CCR5 cells (FLIPR). The settings on record: U-87-CCR5, at 20 μg/mL, read-out: inhibited RANTES induced Ca flux. Here is the method:
Loading dye: Fluo-3, AM (Molecular Probes F-1241) is dissolved in anhydrous DMSO and stored frozen in aliquots. To increase the solubility of the dye in the loading medium, 10% (w/v) pluronic acid (Molecular Probes F-127) is added to the Fluo-3 stock solution immediately before use.
HBSS+20 mM Hepes buffer+0.2% BSA, pH 7.4. HBSS 10× [(w/o phenol red and sodium bicarbonate (Gibco 14 065-049)]; Hepes buffer 1M (Gibco 15 630-056), BSA (Sigma A3675). The flux buffer is vacuum-filtered and stored refrigerated for a maximum of 5 days. Before use in the experiment, the buffer is warmed at 37° C. in a waterbath.
The test compounds were diluted in flux buffer and added to 4 wells of a black microplate (4 parallel measurements per compound).
The chemokines are diluted in flux buffer to concentrations that are 4-fold higher than the desired concentrations required for stimulation of the cells (i.e. 2.5 nM for SDF-1α and 0.6 nM for RANTES). The chemokines were added to untreated 96-well Sero well compound plates (International Medical, Sterilin code 611F96). In the negative control well's (baseline monitoring), flux buffer is added instead of chemokine. As a positive control to check for dye loading efficiency, 20 μM digitonin (final concentration) was also included. The agonist plate was incubated in the FLIPR (37° C.) for 15-30 min.
The FLIPR settings (camera exposure time and laser power) are adjusted to obtain initial fluorescence values between 8,000 and 10,000 units. After monitoring a 20 second-baseline, the agonist (chemokine) (50 μL) is added by automatic pipettor with black pipette tips. Fluorescence is measured simultaneously in all wells of the microplate every 2 seconds (first 2 min) and thereafter every 6 seconds (additional 2 min). The average ca-flux measured in each set of 4 identical wells (one test compound) was calculated by the FLIPR software.
U87.CCR5 cells were seeded into the black microplates (Costar 3603) on the day before the experiment. The culture medium was removed from the cells and 100 μL of loading medium (DMEM+10% FBS+4 μM Fluo-3, AM) was added to each well and the plate was incubate at 37° C. for 45 min. The loading medium was then removed an the cells were washed twice with flux buffer using the CELL WASH microplate washer (Labsystems) followed by incubation in flux buffer for 10 min. at room temperature (the washing procedure was repeated twice). Finally, the wash buffer was removed from the microplate wells and 150 μL of the test compound, diluted in flux buffer to the desired concentration. The microplate was then incubated in the FLIPR drawer for 10 min. prior to testing. Measurements were performed as described above.
The compounds of the current invention were tested for inhibition of RANTES induced Ca flux in U87.CCR5 cells.

In experiment [2] the test system is HIV-1 BaL (CCR5 using). Nature of the experiment: Inhibition of HIV-1 (BaL) replication in PHA-stimulated PBMC's (MTT). The settings on record: Human immunodeficiency virus 1, BAL, MTT assay. The procedure:
Compounds were tested for their ability to inhibit HIV-1 replication in MT-4 cells or PBMC's (peripheral blood mononucleocytes) using published procedures (for example, see: Labrosse et al. J. Virol. 1998, 6381-6388; Simmons et al. J. Virol. 1998, 8453-8457; Donzella et al. Nature Medicine 1998, 72-77; Schols et al. J. Exp. Med. 1997, 1383-1388; De Clercq et al. Antiviral Res. 1997, 147-156; and Bridger et al. U.S. patent application Ser. No. 09/111,895). In addition to the above references, experimental methods for performing anti-viral assays can also be found in: Bridger et al. J. Med. Chem. 1995, 38, 366-378; Bridger et al. J. Med. Chem. 1996, 39, 109-119; Bridger et al. U.S. Pat. No. 5,698,546; Bridger et al. U.S. Pat. No. 5,583,131; Bridger et al. U.S. Pat. No. 5,817,807; De Clercq et al. Antimicrob. Agents and Chemother. 1994, 38, 668-674.
The HIV-1 strain BaL is M-tropic (macrophage tropic) strain that exclusively uses CCR5 as a co-receptor for entry into cells. PBMC's (from healthy donors) express all chemokine receptors including CXCR4 and CCR5.
In general terms: Tetrazolium assays rely on reduction of a dye to a coloured formazan, in cell work by metabolically active cells.

In experiment [3] the test system is SDF-1α induced Ca flux in SUP-T1 cells. Nature of the experiment: Inhibition of SDF-1α induced Ca flux in SUP-T1 cells (FLIPR). The settings on record: Homo sapiens, at 20 μg/mL, read-out: inhibited SDF-1α induced Ca flux.
The test system of experiment [4] is HIV-1 NL4.3 or IIIB. Nature of the experiment: Inhibition of HIV-1 (NL4.3 or IIIB) replication in MT-4 cells (MTT). The conditions noted are these: Human immunodeficiency virus 1, IIIB, MT4, read-out: EC50, inhibition of HIV-1 NL4.3 or IIIB replication. Summed up:
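CXCR4-tropic virus infected MT-4 cells at MOI 0.01 (100× CCID50) across a range of compound concentrations, with cytotoxicity run in parallel. Viable cells counted by MTT after 5 days. EC50 is the concentration protecting 50% of infected cells from viral cytopathicity.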

In the case of `c1ccc(CNCc2ccc(CNc3cccc4ccccc34)cc2)nc1` [Example 5, N-(2-pyridinylmethyl)-N′-(1-naphthalenyl)-1,4-benzenedimethanamine], in experiment [1], the inhibition at 20 µg/mL is above 20%. The EC50 in experiment [2] was below 20 µg/mL.
In the case of `c1ccc(CNCc2ccc(CN(Cc3ccccn3)CC3CCCc4cccnc43)cc2)nc1` (centres unmarked) [Example 88, N,N′-bis(2-pyridinylmethyl)-N′-[(5,6,7,8-tetrahydro-8-quinolinyl)methyl]-1,4-benzenedimethanamine], in experiment [3], the inhibition at 20 µg/mL is above 20%. Further, the EC50 in experiment [4] and in experiment [2] was below 20 µg/mL each time.
As for `Fc1cccc2c1CC(NCc1ccc(CNCc3ccccn3)cc1)CC2` (centres unmarked) [Example 43, N-(2-pyridinylmethyl)-N′-(8-Fluoro-1,2,3,4-tetrahydro2-naphthalenyl)-1,4-benzenedimethanamine], the inhibition at 20 µg/mL in experiment [3] was above 20%. Moreover, the concentration for a half-maximal effect (EC50) in experiment [4] and in experiment [2] was below 20 µg/mL in each case.
`N[C@@H]1CCC[C@H]1N(Cc1ccc(CNCc2ccccn2)cc1)C1CCCc2cccnc21` (relative stereo) [Example 71, N-(2-pyridinylmethyl)-N′-(trans-2-aminocyclopentyl)-N′-(5,6,7,8-tetrahydro-8-quinolinyl)-1,4-benzenedimethanamine]: the inhibition at 20 µg/mL in experiment [1] is above 20%. Further, the EC50 in experiment [4] and in experiment [2] was below 20 µg/mL throughout.
Consider `c1ccc(-c2ccc3c(n2)C(NCc2ccc(CNCc4ccccn4)cc2)CCC3)cc1` (centres unmarked) [Example 11, N-(2-pyridinylmethyl)-N′-(2-phenyl-5,6,7,8-tetrahydro-8-quinolinyl)-1,4-benzenedimethanamine], for which, in experiment [1], the inhibition at 20 µg/mL is above 20%. The EC50 in experiment [4] and in experiment [2] was below 20 µg/mL each time.
In the case of `c1ccc(CCN(Cc2ccc(CNCc3ccccn3)cc2)C2CCCc3cccnc32)nc1` (centres unmarked) [Example 66, N-(2-pyridinylmethyl)-N′-[2-(2-pyridinyl)ethyl]-N′-(5,6,7,8-tetrahydro-8-quinolinyl)-1,4-benzenedimethanamine], in experiment [3], the inhibition at 20 µg/mL was above 20%. Moreover, the EC50 in experiment [4] and in experiment [2] was below 20 µg/mL throughout.
As to `c1ccc(CNCCN(Cc2ccc(CNCc3ccccn3)cc2)C2CCCc3cccnc32)cc1` (centres unmarked) [Example 30, N-(2-pyridinylmethyl)-N′-[2-[(phenylmethyl)amino]ethyl]-N′-(5,6,7,8-tetrahydro-8-quinolinyl)-1,4-benzenedimethanamine], the inhibition at 20 µg/mL in experiment [3] and in experiment [1] was above 20% each time. In addition, the EC50 in experiment [4] and in experiment [2] was below 20 µg/mL throughout.
As to `c1ccc(-c2ccc3c(n2)C(N(Cc2ccc(CNCc4ccccn4)cc2)Cc2ccccn2)CCC3)cc1` (centres unmarked) [Example 12, N,N′-bis(2-pyridinylmethyl)-N′-(2-phenyl-5,6,7,8-tetrahydro-8-quinolinyl)-1,4-benzenedimethanamine], the inhibition at 20 µg/mL in experiment [3] is above 20%. The EC50 in experiment [4] and in experiment [2] was below 20 µg/mL in each case.
As to `c1ccc(CNCc2ccc(CN(Cc3c[nH]cn3)C3CCCc4cccnc43)cc2)nc1` (centres unmarked) [Example 17, N-(2-pyridinylmethyl)-N′-(1H-imidazol-4-ylmethyl)-N′-(5,6,7,8-tetrahydro-8-quinolinyl)-1,4-benzenedimethanamine], in experiment [3], the inhibition at 20 µg/mL is above 20%. In addition, the EC50 in experiment [4] and in experiment [2] was below 20 µg/mL each time.
As for `c1ccc(CNCc2ccc(CN(Cc3ccco3)C3CCCc4cccnc43)cc2)nc1` (centres unmarked) [Example 29, N-(2-pyridinylmethyl)-N′-[2-furanylmethyl]-N′-(5,6,7,8-tetrahydro-8-quinolinyl)-1,4-benzenedimethanamine], the inhibition at 20 µg/mL in experiment [3] was above 20%. Moreover, the EC50 in experiment [4] and in experiment [2] was below 20 µg/mL in each case.
With `c1ccc(CNCc2ccc(CNC3CCCc4ncccc43)cc2)nc1` (centres unmarked) [Example 13, N-(2-pyridinylmethyl)-N′-(5,6,7,8-tetrahydro-5-quinolinyl)-1,4-benzenedimethanamine], the EC50 in experiment [4] and in experiment [2] was below 20 µg/mL in each case.
Take `COc1ccc2c(c1)CCC(NCc1ccc(CNCc3ccccn3)cc1)C2` (centres unmarked) [Example 36, N-(2-pyridinylmethyl)-N′-(6-methoxy-1,2,3,4-tetrahydro-2-naphthalenyl)-1,4-benzenedimethanamine]: the EC50 in experiment [4] and in experiment [2] was below 20 µg/mL each time.
For the compound `CC1c2ccccc2CCC1NCc1ccc(CNCc2ccccn2)cc1` (centres unmarked) [Example 37, N-(2-pyridinylmethyl)-N′-(1-methyl-1,2,3,4-tetrahydro-2-naphthalenyl)-1,4-benzenedimethanamine], the inhibition at 20 µg/mL in experiment [3] was above 20%. Further, the EC50 in experiment [4] and in experiment [2] was below 20 µg/mL in each case.
For the compound `Oc1cccc2c1CC(N(Cc1ccc(CNCc3ccccn3)cc1)Cc1ncc[nH]1)CC2` (centres unmarked) [Example 42, N-(2-pyridinylmethyl)-N′-(1H-imidazol-2-ylmethyl)-N′-(8-hydroxy-1,2,3,4-tetrahydro-2-naphthalenyl)-1,4-benzenedimethanamine], the EC50 in experiment [4] and in experiment [2] was below 20 µg/mL each time.
With `COc1ccc(CCN(Cc2ccc(CNC3CCCc4cccnc43)cc2)Cc2ccccn2)cc1` (centres unmarked) [Example 91, N-(2-pyridinylmethyl)-N-[2-(4-methoxyphenyl)ethyl]-N′-(5,6,7,8-tetrahydro-8-quinolinyl)-1,4-benzenedimethanamine], the EC50 in experiment [4] and in experiment [2] was below 20 µg/mL each time.
